Results as given in patent US3941842A, “P,P'-Disubstituted α-trichloromethylbenzylanilines” (priority 1972, dated 1976).

Key:
Phormia regina = assay: whole plant or invertebrate; details: for LD50: Phormia regina, read-out: Topical LD50, Phormia regina, Alone; for LD50 / Topical LD50, Phormia regina, with pb: topical; for SR, Phormia regina: synergistic ratio: LD50 alone/LD50 synergized with piperonyl butoxide; for Topical LD50, Phormia regina, with pb: synergized with piperonyl butoxide
Protocol: The compounds of the present invention were tested for insecticidal activity by standard methods, and compared with the insecticidal activities of DDT and symmetrical analogs of DDT, such methoxychlor. Toxicological methods for the determination of the topical LD50 values to adult female SNAIDM and RSP houseflies, Musca domestica L. and to Phormia regina, and LC50 values to Culex pipiens quinquefasciatus Say, and Anopheles albimanus Weid mosquitoes were described by Metcalf el al., 44 Bull. World Health Org. […] The methods for evaluation of metabolism by mouse liver homogenate and by female RSP housefly and salt-marsh caterpillar larvae Estigmene acrea Drury, were described by Kapoor et al., 18 J. Agr. […] The techniques for model eocsystem evluation were described by Metcalf et al., 5 J. Environ. Sci. Tech.
(§1) Since piperonyl butoxide serves to block the action of MFO, the synergized LD50 values express the intrinsic toxicity of the compounds. With the detoxifying action of MFO enzymes blocked, the intrinsic toxicity of the compounds can thus be measured.

Musca domestica Snaidm = assay: Topical LD50 to adult female SNAIDM houseflies; details: for LD50: Musca domestica, read-out: Topical LD50, Musca domestica Snaidm, Alone; for LD50 / Topical LD50, Musca domestica Snaidm, with pb: topical; for Topical LD50, Musca domestica Snaidm, with pb: SNAIDM strain, synergized with piperonyl butoxide; for SR, Musca domestica Snaidm: synergistic ratio: LD50 alone/LD50 synergized with piperonyl butoxide
Protocol: (§2) The compounds of the present invention were tested for insecticidal activity by standard methods, and compared with the insecticidal activities of DDT and symmetrical analogs of DDT, such methoxychlor. Toxicological methods for the determination of the topical LD50 values to adult female SNAIDM and RSP houseflies, Musca domestica L. and to Phormia regina, and LC50 values to Culex pipiens quinquefasciatus Say, and Anopheles albimanus Weid mosquitoes were described by Metcalf el al., 44 Bull. World Health Org. 363 (1971). The methods for evaluation of metabolism by mouse liver homogenate and by female RSP housefly and salt-marsh caterpillar larvae Estigmene acrea Drury, were described by Kapoor et al., 18 J. Agr. Food Chem. 1145 (1970). The techniques for model eocsystem evluation were described by Metcalf et al., 5 J. Environ. Sci. Tech. 709 (1971).
as §1

Culex fatigans larvae = assay: LC50 to Culex fatigans larvae; format: in vivo, Culex pipiens quinquefasciatus Say
Text: (§3) World Health Org. 363 (1971). […] Food Chem. 1145 (1970). […] Sci. Tech. 709 (1971). The results are detailed in Table II. ##SPC1##

[1] = system: Anopheles albimanus larvae; assay: LC50 to Anopheles albimanus larvae; format: in vivo, Anopheles albimanus Weid
Text: as §3

Musca domestica Rsp = assay: Topical LD50 to adult female RSP houseflies; details: for LD50: Musca domestica, read-out: Topical LD50, Musca domestica Rsp, Alone; for LD50 / Topical LD50, Musca domestica Rsp, with pb: topical; for Topical LD50, Musca domestica Rsp, with pb: RSP strain, synergized with piperonyl butoxide; for SR, Musca domestica Rsp: synergistic ratio: LD50 alone/LD50 synergized with piperonyl butoxide
Protocol: as §2, §1

COc1ccc(C(Nc2ccc(C)cc2)C(Cl)(Cl)Cl)cc1 (stereo not shown) [IX]
LD50 (Phormia regina): 16.5 mg/kg
SR, Phormia regina (Phormia regina): 1.4
Topical LD50, Phormia regina, with pb (Phormia regina): 11.50 μg per g
LD50 (Musca domestica Snaidm): 35 mg/kg
Topical LD50, Musca domestica Snaidm, with pb (Musca domestica Snaidm): 8.5 μg per g
SR, Musca domestica Snaidm (Musca domestica Snaidm): 4.1
LC50 Culex fatigans larvae (Culex fatigans larvae): 0.26 ppm
LC50 Anopheles albimanus larvae [1]: 0.28 ppm
LD50 (Musca domestica Rsp): 50 mg/kg
Topical LD50, Musca domestica Rsp, with pb (Musca domestica Rsp): 12.0 μg per g
SR, Musca domestica Rsp (Musca domestica Rsp): 4.5

CCOc1ccc(NC(c2ccc(Cl)cc2)C(Cl)(Cl)Cl)cc1 (stereo not shown) [VIII]
LD50 (Phormia regina): 37.5 mg/kg
SR, Phormia regina (Phormia regina): 2.8
Topical LD50, Phormia regina, with pb (Phormia regina): 13.2 μg per g
LD50 (Musca domestica Snaidm): 19.5 mg/kg
Topical LD50, Musca domestica Snaidm, with pb (Musca domestica Snaidm): 4.1 μg per g
SR, Musca domestica Snaidm (Musca domestica Snaidm): 4.8
LC50 Culex fatigans larvae (Culex fatigans larvae): 0.22 ppm
LC50 Anopheles albimanus larvae [1]: 0.26 ppm
LD50 (Musca domestica Rsp): 45 mg/kg
Topical LD50, Musca domestica Rsp, with pb (Musca domestica Rsp): 13.0 μg per g
SR, Musca domestica Rsp (Musca domestica Rsp): 3.5

COc1ccc(C(Nc2ccc(Cl)cc2)C(Cl)(Cl)Cl)cc1 (stereo not shown) [V]
LD50 (Phormia regina): 55 mg/kg
SR, Phormia regina (Phormia regina): 3.6
Topical LD50, Phormia regina, with pb (Phormia regina): 15.2 μg per g
LD50 (Musca domestica Snaidm): 23 mg/kg
Topical LD50, Musca domestica Snaidm, with pb (Musca domestica Snaidm): 10.5 μg per g
SR, Musca domestica Snaidm (Musca domestica Snaidm): 2.2
LC50 Culex fatigans larvae (Culex fatigans larvae): 0.068 ppm
LC50 Anopheles albimanus larvae [1]: 0.12 ppm
LD50 (Musca domestica Rsp): 35.5 mg/kg
Topical LD50, Musca domestica Rsp, with pb (Musca domestica Rsp): 12.0 μg per g
SR, Musca domestica Rsp (Musca domestica Rsp): 3.0

CCOc1ccc(C(Nc2ccc(C)cc2)C(Cl)(Cl)Cl)cc1 (stereo not drawn) [XI, α-trichloromethyl-p-ethoxybenzyl-p-methylaniline]
LD50 (Phormia regina): 7.7 mg/kg
Topical LD50, Phormia regina, with pb (Phormia regina): 4.2 μg per g
LD50 (Musca domestica Snaidm): 12.5 mg/kg
Topical LD50, Musca domestica Snaidm, with pb (Musca domestica Snaidm): 2.5 μg per g
SR, Musca domestica Snaidm (Musca domestica Snaidm): 5.0
LC50 Culex fatigans larvae (Culex fatigans larvae): 0.073 ppm
LC50 Anopheles albimanus larvae [1]: 0.085 ppm
LD50 (Musca domestica Rsp): 14 mg/kg
Topical LD50, Musca domestica Rsp, with pb (Musca domestica Rsp): 4.4 μg per g
SR, Musca domestica Rsp (Musca domestica Rsp): 3.2

CCOc1ccc(C(Nc2ccc(OC)cc2)C(Cl)(Cl)Cl)cc1 (stereo not shown) [XIII]
LD50 (Phormia regina): 22 mg/kg
SR, Phormia regina (Phormia regina): 1.8
Topical LD50, Phormia regina, with pb (Phormia regina): 12.5 μg per g
LD50 (Musca domestica Snaidm): 23.5 mg/kg
Topical LD50, Musca domestica Snaidm, with pb (Musca domestica Snaidm): 5.5 μg per g
SR, Musca domestica Snaidm (Musca domestica Snaidm): 4.2
LC50 Culex fatigans larvae (Culex fatigans larvae): 0.42 ppm
LC50 Anopheles albimanus larvae [1]: 0.68 ppm
LD50 (Musca domestica Rsp): 41 mg/kg
Topical LD50, Musca domestica Rsp, with pb (Musca domestica Rsp): 12.5 μg per g
SR, Musca domestica Rsp (Musca domestica Rsp): 3.3

CCOc1ccc(NC(c2ccc(C)cc2)C(Cl)(Cl)Cl)cc1 (stereo not shown) [XII]
LD50 (Phormia regina): 95 mg/kg
SR, Phormia regina (Phormia regina): 2.2
Topical LD50, Phormia regina, with pb (Phormia regina): 42.5 μg per g
LD50 (Musca domestica Snaidm): 35 mg/kg
Topical LD50, Musca domestica Snaidm, with pb (Musca domestica Snaidm): 14.5 μg per g
SR, Musca domestica Snaidm (Musca domestica Snaidm): 2.4
LC50 Culex fatigans larvae (Culex fatigans larvae): 0.33 ppm
LC50 Anopheles albimanus larvae [1]: 0.30 ppm
LD50 (Musca domestica Rsp): 70 mg/kg
Topical LD50, Musca domestica Rsp, with pb (Musca domestica Rsp): 19.5 μg per g
SR, Musca domestica Rsp (Musca domestica Rsp): 3.6

CCOc1ccc(NC(c2ccc(OC)cc2)C(Cl)(Cl)Cl)cc1 (stereo not shown) [XIV]
LD50 (Phormia regina): 112 mg/kg
SR, Phormia regina (Phormia regina): 5.6
Topical LD50, Phormia regina, with pb (Phormia regina): 20.0 μg per g
LD50 (Musca domestica Snaidm): 30 mg/kg
Topical LD50, Musca domestica Snaidm, with pb (Musca domestica Snaidm): 3.9 μg per g
SR, Musca domestica Snaidm (Musca domestica Snaidm): 7.7
LC50 Culex fatigans larvae (Culex fatigans larvae): 0.34 ppm
LC50 Anopheles albimanus larvae [1]: 1.0 ppm
LD50 (Musca domestica Rsp): 37 mg/kg
Topical LD50, Musca domestica Rsp, with pb (Musca domestica Rsp): 12.0 μg per g
SR, Musca domestica Rsp (Musca domestica Rsp): 3.1
